{"source": "paper PMC9871250", "about": "“Identification of an indole biodegradation gene cluster from Providencia rettgeri and its contribution in selectively biosynthesizing Tyrian purple” (Frontiers in Bioengineering and Biotechnology, 2023)", "molecular_target": "T1, GS-D (Providencia rettgeri, UniProt A0ACG1W3V9)", "T1 construct": "gene KAH49_07450; full length, N-terminal 6xHis, pET28a in E. coli BL21(DE3), Ni-NTA", "T1 sequence (A0ACG1W3V9 1-176)": "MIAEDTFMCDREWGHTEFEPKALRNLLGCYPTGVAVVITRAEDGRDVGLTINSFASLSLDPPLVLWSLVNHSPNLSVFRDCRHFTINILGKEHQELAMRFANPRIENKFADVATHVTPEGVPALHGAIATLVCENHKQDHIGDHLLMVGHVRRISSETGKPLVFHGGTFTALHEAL", "experiment": "NADH oxidation, absorbance at […] nm", "format": "biochemical", "details": "pH 8.0, 30 °C, 250 μM NADH, 100 μM FAD"}
{"smiles": "NC(=O)C1=CN([C@@H]2O[C@H](COP(=O)(O)OP(=O)(O)OC[C@H]3O[C@@H](n4cnc5c(N)ncnc54)[C@H](O)[C@@H]3O)[C@@H](O)[C@H]2O)C=CC1", "note": "[NADH]", "values": [{"measurement": "NADH oxidation, absorbance at 340 nm", "value": "oxidation of NADH demonstrated the flavin reductase activity of the GS-D reductase"}]}
